Measured values reported in the NIST ThermoML archive (doi:10.1016/j.fluid.2009.07.010).
± gives the expanded uncertainty stated by the source.

Experiments:
[1] = for mass density: 298.1 K, 101.33 kPa, Liquid, Vibrating tube method; for surface tension liquid-gas: 298.15 K, Drop volume
[2] = xn = mol fraction of the nth substance listed; details: 298.15 K; for surface tension liquid-gas: Drop volume; for mass density: 101 kPa, Liquid, Vibrating tube method

CCCCn1cc[n+](C)c1.F[B-](F)(F)F [1-butyl-3-methylimidazolium tetrafluoroborate]
[1]
Details	mass density [kg/m3]	surface tension liquid-gas [mN/m]
–	1201.2 ± 0.5	45.33 ± 0.3

CCCCn1cc[n+](C)c1.F[B-](F)(F)F [1-butyl-3-methylimidazolium tetrafluoroborate] + CCO
[2]
Details	mass density [kg/m3]	surface tension liquid-gas [mN/m]
x1 = 0.0986	897.2 ± 0.3	22.83 ± 0.15
x1 = 0.2002	977.4 ± 0.3	23.28 ± 0.16
x1 = 0.2553	1010.7 ± 0.3	24.65 ± 0.16
x1 = 0.2881	1027.9 ± 0.3	–
x1 = 0.3284	1046.8 ± 0.3	25.53 ± 0.17
x1 = 0.3999	1075.5 ± 0.4	26.55 ± 0.18
x1 = 0.4202	1082.7 ± 0.4	27.2 ± 0.18
x1 = 0.5024	1108.6 ± 0.4	28.87 ± 0.19
x1 = 0.6082	1135.9 ± 0.4	31.32 ± 0.21
x1 = 0.7107	1157.4 ± 0.4	34.9 ± 0.23
x1 = 0.804	1173.7 ± 0.4	37.99 ± 0.25
x1 = 0.9059	1188.8 ± 0.5	41.54 ± 0.27
x1 = 1	1201.2 ± 0.5	45.33 ± 0.3

CCCCn1cc[n+](C)c1.F[B-](F)(F)F [1-butyl-3-methylimidazolium tetrafluoroborate] + O
[2]
Details	mass density [kg/m3]	surface tension liquid-gas [mN/m]
x1 = 0.0001	–	61.54 ± 0.25
x1 = 0.0003	–	61.5 ± 0.25
x1 = 0.0017	1000.9 ± 0.2	–
x1 = 0.0035	1004.8 ± 0.3	–
x1 = 0.0039	–	57.3 ± 0.24
x1 = 0.0052	1008.5 ± 0.3	–
x1 = 0.0058	–	54.34 ± 0.23
x1 = 0.0069	1011.9 ± 0.3	–
x1 = 0.0074	–	51.77 ± 0.22
x1 = 0.0092	1014.4 ± 0.3	–
x1 = 0.0094	–	50.63 ± 0.22
x1 = 0.0197	1030.6 ± 0.3	–
x1 = 0.02	–	46.93 ± 0.21
x1 = 0.0335	1048.2 ± 0.3	–
x1 = 0.0404	–	46.02 ± 0.21
x1 = 0.0498	–	46.27 ± 0.21
x1 = 0.0502	1065.2 ± 0.3	–
x1 = 0.0586	–	46.25 ± 0.21
x1 = 0.0698	–	46.14 ± 0.21
x1 = 0.0736	1084.1 ± 0.3	–
x1 = 0.0799	–	45.99 ± 0.21
x1 = 0.0998	–	46.19 ± 0.22
x1 = 0.1013	–	45.63 ± 0.21
x1 = 0.1072	1103.9 ± 0.3	–
x1 = 0.1081	–	46.23 ± 0.21
x1 = 0.139	–	46.22 ± 0.22
x1 = 0.1398	1118 ± 0.3	–
x1 = 0.1621	–	46.16 ± 0.22
x1 = 0.1688	1128 ± 0.3	–
x1 = 0.1788	–	46.06 ± 0.22
x1 = 0.1818	–	45.91 ± 0.22
x1 = 0.2128	–	45.62 ± 0.22
x1 = 0.252	1148.2 ± 0.3	–
x1 = 0.2963	1156.2 ± 0.3	46.25 ± 0.23
x1 = 0.3734	1166.9 ± 0.3	–
x1 = 0.4067	1169.4 ± 0.3	46.32 ± 0.24
x1 = 0.4408	1171.9 ± 0.3	–
x1 = 0.4946	1177.9 ± 0.4	–
x1 = 0.5252	1178.7 ± 0.4	–
x1 = 0.5304	1181.5 ± 0.4	46.02 ± 0.25
x1 = 0.5723	1181.8 ± 0.4	–
x1 = 0.6	1185 ± 0.4	–
x1 = 0.6326	1187.9 ± 0.4	45.81 ± 0.26
x1 = 0.6922	1189.4 ± 0.4	–
x1 = 0.7065	1191.1 ± 0.4	45.68 ± 0.27
x1 = 0.8003	–	45.52 ± 0.28
x1 = 0.8167	1193.7 ± 0.4	–
x1 = 0.9005	1197.8 ± 0.5	45.41 ± 0.29
x1 = 1	1201.2 ± 0.5	45.33 ± 0.3

CCn1cc[n+](C)c1.F[B-](F)(F)F [1-ethyl-3-methylimidazolium tetrafluoroborate]
[1]
Details	mass density [kg/m3]	surface tension liquid-gas [mN/m]
–	1279.9 ± 1.5	52.81 ± 0.57

CCn1cc[n+](C)c1.F[B-](F)(F)F [1-ethyl-3-methylimidazolium tetrafluoroborate] + CCO
[2]
Details	mass density [kg/m3]	surface tension liquid-gas [mN/m]
x1 = 0.6087	1190.3 ± 0.7	33.58 ± 0.29
x1 = 0.7056	1225.5 ± 0.9	37.37 ± 0.34
x1 = 0.8072	1241.6 ± 1.1	42.77 ± 0.41
x1 = 0.9054	1262.6 ± 1.3	47.41 ± 0.49
x1 = 1	1279.9 ± 1.5	53.04 ± 0.57

CCn1cc[n+](C)c1.F[B-](F)(F)F [1-ethyl-3-methylimidazolium tetrafluoroborate] + O
[2]
Details	mass density [kg/m3]	surface tension liquid-gas [mN/m]
x1 = 0.004	1005.5 ± 0.3	67.38 ± 0.27
x1 = 0.0077	1013.2 ± 0.3	65 ± 0.26
x1 = 0.0123	1021.8 ± 0.3	62.87 ± 0.26
x1 = 0.0132	1023.4 ± 0.3	61.91 ± 0.25
x1 = 0.0288	1046.4 ± 0.3	58.15 ± 0.25
x1 = 0.0483	1068.2 ± 0.3	57.31 ± 0.25
x1 = 0.0709	1088.6 ± 0.3	55.92 ± 0.25
x1 = 0.102	1111.7 ± 0.3	55.24 ± 0.25
x1 = 0.1418	1135.8 ± 0.3	54.43 ± 0.26
x1 = 0.2141	1169.1 ± 0.4	53.8 ± 0.27
x1 = 0.2191	1171 ± 0.4	–
x1 = 0.2894	–	54.15 ± 0.3
x1 = 0.3118	1200.3 ± 0.4	–
x1 = 0.4011	–	54.01 ± 0.33
x1 = 0.4551	1230 ± 0.5	–
x1 = 0.4987	1236.7 ± 0.6	–
x1 = 0.5074	–	53.88 ± 0.37
x1 = 0.5923	1248.6 ± 0.7	–
x1 = 0.6018	–	53.73 ± 0.41
x1 = 0.691	1258.5 ± 0.8	–
x1 = 0.7534	–	53.51 ± 0.47
x1 = 0.7774	1265.5 ± 1	–
x1 = 0.9015	–	53.25 ± 0.53
x1 = 1	1279.9 ± 1.5	53.04 ± 0.57

CCCCCCn1cc[n+](C)c1.F[B-](F)(F)F [1-hexyl-3-methylimidazolium tetrafluoroborate]
[1]
Details	mass density [kg/m3]	surface tension liquid-gas [mN/m]
–	1145.4 ± 0.4	37.33 ± 0.26

CCCCCCn1cc[n+](C)c1.F[B-](F)(F)F [1-hexyl-3-methylimidazolium tetrafluoroborate] + CCO
[2]
Details	mass density [kg/m3]	surface tension liquid-gas [mN/m]
x1 = 0.098	893.9 ± 0.3	23.11 ± 0.15
x1 = 0.1998	964.6 ± 0.3	24.21 ± 0.16
x1 = 0.3	1011.9 ± 0.3	25.62 ± 0.17
x1 = 0.3991	1046.1 ± 0.3	27.09 ± 0.18
x1 = 0.5079	1073.7 ± 0.3	28.82 ± 0.19
x1 = 0.6123	1095.5 ± 0.4	30.74 ± 0.2
x1 = 0.702	1108.8 ± 0.4	32.47 ± 0.22
x1 = 0.803	1123.9 ± 0.4	34.22 ± 0.23
x1 = 0.9	1134.7 ± 0.4	35.75 ± 0.24
x1 = 1	1145.5 ± 0.4	37.33 ± 0.26

CCCCCCn1cc[n+](C)c1.F[B-](F)(F)F [1-hexyl-3-methylimidazolium tetrafluoroborate] + O
[2]
Details	mass density [kg/m3]	surface tension liquid-gas [mN/m]
x1 = 0.3032	1115.8 ± 0.3	37.93 ± 0.2
x1 = 0.4059	1123.9 ± 0.3	37.79 ± 0.21
x1 = 0.5058	1129.2 ± 0.3	37.65 ± 0.21
x1 = 0.6061	1133.8 ± 0.3	37.52 ± 0.22
x1 = 0.7057	1137.4 ± 0.4	37.4 ± 0.23
x1 = 0.803	1140.3 ± 0.4	37.35 ± 0.24
x1 = 0.9002	1142.6 ± 0.4	37.33 ± 0.25
x1 = 1	1145.5 ± 0.4	37.33 ± 0.26

CCCCCCCC[n+]1ccn(C)c1.F[B-](F)(F)F [1-methyl-3-octylimidazolium tetrafluoroborate]
[1]
Details	mass density [kg/m3]	surface tension liquid-gas [mN/m]
–	1104.2 ± 0.4	32.84 ± 0.23

CCCCCCCC[n+]1ccn(C)c1.F[B-](F)(F)F [1-methyl-3-octylimidazolium tetrafluoroborate] + CCO
[2]
Details	mass density [kg/m3]	surface tension liquid-gas [mN/m]
x1 = 0.1012	893 ± 0.3	23.33 ± 0.15
x1 = 0.2034	957.9 ± 0.3	24.7 ± 0.16
x1 = 0.3	996.6 ± 0.3	25.99 ± 0.17
x1 = 0.4096	1026.4 ± 0.3	27.28 ± 0.18
x1 = 0.5125	1047.8 ± 0.3	27.9 ± 0.19
x1 = 0.6156	1065.2 ± 0.3	28.88 ± 0.19
x1 = 0.7207	1079.3 ± 0.4	29.9 ± 0.2
x1 = 0.815	1088.8 ± 0.4	30.86 ± 0.21
x1 = 0.9014	1095.6 ± 0.4	31.84 ± 0.22
x1 = 1	1104.2 ± 0.4	32.82 ± 0.23

CCO [ethanol]
[1]
Details	mass density [kg/m3]	surface tension liquid-gas [mN/m]
–	785.8 ± 0.2	22 ± 0.15

CCO [ethanol] + CCn1cc[n+](C)c1.F[B-](F)(F)F
[2], x2 = 0
Details	mass density [kg/m3]	surface tension liquid-gas [mN/m]
–	785.8 ± 0.2	52.81 ± 0.26

O [water]
Details	surface tension liquid-gas [mN/m]
[1]	71.35 ± 0.28

O [water] + CCCCn1cc[n+](C)c1.F[B-](F)(F)F
Details	surface tension liquid-gas [mN/m]
[2], x2 = 0	71.35 ± 0.28

O [water] + CCn1cc[n+](C)c1.F[B-](F)(F)F
Details	surface tension liquid-gas [mN/m]
[2], x2 = 0	71.35 ± 0.28
